Results as given in patent publication US20110015226A1, “Treatment of Energy Utilization Disease” (SUMMIT CORPORATION PLC, priority 2008, published 2011).

How the values were obtained:
Storage stability = type: physicochemical; conditions: all normal laboratory storage conditions
rat intestinal sucrase = biological target: T1, rat intestinal sucrase (Rattus norvegicus, UniProt P23739); test: Rat intestinal glycosidases: sucrase; type: biochemical; conditions: rat intestinal brush border membranes
T1 construct: Enzyme activities were prepared from brush border membranes of rat small intestine; from tissue; host or cells: rat small intestine brush border membranes
T1 sequence (P23739 whole entry): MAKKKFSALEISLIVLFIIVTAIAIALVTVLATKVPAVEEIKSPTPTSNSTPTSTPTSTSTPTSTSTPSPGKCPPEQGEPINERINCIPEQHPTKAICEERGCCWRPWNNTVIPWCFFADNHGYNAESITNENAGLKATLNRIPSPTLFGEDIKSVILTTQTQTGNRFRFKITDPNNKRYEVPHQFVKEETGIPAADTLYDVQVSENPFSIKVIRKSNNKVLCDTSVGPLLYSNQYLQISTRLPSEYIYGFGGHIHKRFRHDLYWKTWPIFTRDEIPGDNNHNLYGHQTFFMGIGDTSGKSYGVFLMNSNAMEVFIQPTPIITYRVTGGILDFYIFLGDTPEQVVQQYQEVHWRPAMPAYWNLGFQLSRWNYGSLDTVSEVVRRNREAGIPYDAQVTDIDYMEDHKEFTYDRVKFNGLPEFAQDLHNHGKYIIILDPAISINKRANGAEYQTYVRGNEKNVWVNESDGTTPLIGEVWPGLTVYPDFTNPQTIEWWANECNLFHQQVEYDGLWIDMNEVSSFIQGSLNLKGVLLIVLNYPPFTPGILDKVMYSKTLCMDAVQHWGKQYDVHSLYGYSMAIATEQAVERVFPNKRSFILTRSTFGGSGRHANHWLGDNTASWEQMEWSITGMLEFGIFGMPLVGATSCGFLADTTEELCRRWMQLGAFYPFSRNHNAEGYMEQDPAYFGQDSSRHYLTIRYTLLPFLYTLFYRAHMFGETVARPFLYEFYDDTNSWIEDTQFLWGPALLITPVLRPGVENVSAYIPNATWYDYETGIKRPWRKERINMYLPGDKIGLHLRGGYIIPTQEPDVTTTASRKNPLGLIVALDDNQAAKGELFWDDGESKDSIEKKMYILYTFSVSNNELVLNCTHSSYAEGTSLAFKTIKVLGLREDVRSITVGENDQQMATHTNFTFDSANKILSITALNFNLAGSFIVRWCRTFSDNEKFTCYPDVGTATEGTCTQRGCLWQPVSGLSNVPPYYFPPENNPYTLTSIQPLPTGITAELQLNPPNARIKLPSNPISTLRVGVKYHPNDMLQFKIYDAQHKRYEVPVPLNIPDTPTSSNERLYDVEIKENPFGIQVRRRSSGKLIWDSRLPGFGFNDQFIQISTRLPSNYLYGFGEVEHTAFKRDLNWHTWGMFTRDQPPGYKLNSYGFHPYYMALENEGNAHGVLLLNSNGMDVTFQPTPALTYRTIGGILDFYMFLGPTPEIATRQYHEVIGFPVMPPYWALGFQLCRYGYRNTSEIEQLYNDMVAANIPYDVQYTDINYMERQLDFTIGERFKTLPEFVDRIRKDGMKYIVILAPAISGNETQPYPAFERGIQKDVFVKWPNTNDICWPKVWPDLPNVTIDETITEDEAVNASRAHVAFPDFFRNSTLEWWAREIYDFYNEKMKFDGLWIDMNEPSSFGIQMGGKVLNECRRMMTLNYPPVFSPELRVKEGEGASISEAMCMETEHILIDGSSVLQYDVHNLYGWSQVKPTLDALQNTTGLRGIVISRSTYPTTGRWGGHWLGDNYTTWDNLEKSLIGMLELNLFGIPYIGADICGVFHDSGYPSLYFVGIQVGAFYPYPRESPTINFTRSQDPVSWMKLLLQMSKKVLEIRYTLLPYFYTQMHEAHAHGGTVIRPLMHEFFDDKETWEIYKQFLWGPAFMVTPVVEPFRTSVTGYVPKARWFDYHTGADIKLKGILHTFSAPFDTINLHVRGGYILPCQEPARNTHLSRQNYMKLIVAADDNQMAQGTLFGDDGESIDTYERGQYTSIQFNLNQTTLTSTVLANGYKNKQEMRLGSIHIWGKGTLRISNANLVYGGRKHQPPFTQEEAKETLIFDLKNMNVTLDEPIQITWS
Procedure: (§1) Enzyme activities were prepared from brush border membranes of rat small intestine using disaccharides as substrates as described by Yasuda et al., 2002.

glucuronidase = glucuronidase (Homo sapiens, UniProt P08236); conditions: Booth et al. (2007) and references therein; cited from earlier work
Sequence of glucuronidase (P08236 23-651): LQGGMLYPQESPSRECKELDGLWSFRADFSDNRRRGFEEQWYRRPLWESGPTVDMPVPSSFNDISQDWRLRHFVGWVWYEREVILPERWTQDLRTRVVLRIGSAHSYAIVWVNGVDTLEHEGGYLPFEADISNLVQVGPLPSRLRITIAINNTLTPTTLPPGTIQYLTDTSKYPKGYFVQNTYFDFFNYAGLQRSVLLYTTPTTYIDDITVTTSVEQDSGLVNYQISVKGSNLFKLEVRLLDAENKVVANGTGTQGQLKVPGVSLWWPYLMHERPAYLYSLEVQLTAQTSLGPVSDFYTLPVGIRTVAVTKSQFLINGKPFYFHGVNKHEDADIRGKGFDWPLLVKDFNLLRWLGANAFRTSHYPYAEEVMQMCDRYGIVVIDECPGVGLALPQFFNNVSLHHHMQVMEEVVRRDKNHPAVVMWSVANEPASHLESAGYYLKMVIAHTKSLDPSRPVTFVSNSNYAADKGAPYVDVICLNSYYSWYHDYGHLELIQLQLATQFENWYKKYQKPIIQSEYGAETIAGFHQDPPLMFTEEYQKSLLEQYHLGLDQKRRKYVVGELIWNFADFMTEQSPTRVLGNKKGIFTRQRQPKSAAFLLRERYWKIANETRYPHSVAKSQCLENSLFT

[1] = biological target: T2, rat intestinal isomaltase (Rattus norvegicus, UniProt P23739); test: Rat intestinal glycosidases: isomaltase; type: biochemical; conditions: rat intestinal brush border membranes
T2 construct: Enzyme activities were prepared from brush border membranes of rat small intestine; from tissue; host or cells: rat small intestine brush border membranes
T2 sequence (P23739 whole entry): as the sequence (P23739 whole entry) above
Procedure: as §1

ddy mice = test: Serum insulin levels in ddy mice with or without glucose load; type: in vivo; conditions: 30 minutes
Procedure: 7 week old ddy mice (weight 30-31 g) were divided into 4 groups (groups 1 to 4). Each group had 3-4 mice. All test mouse were fasted for 16 hours before being given the test compounds.
Group 1: Control. un-treated mice (without glucose and G2). Group 2: Oral administration of glucose alone. Group 3: Oral administration of G2 alone. Group 4: Oral administration of G2 with glucose.
Serum insulin levels were measured after 30 minutes (see FIG. 2).
FIG. 3 Effects of G2 (BR1) (100 mg/kg body weight) on serum insulin levels.
Serum insulin concentrations of male ddy mouse after 30 minutes later an oral load with or without D-glucose (2.5 g/kg body weight). Each value represents the mean±SEM (n=3-4). * P<0.05, ** P<0.01.

rat intestinal trehalase = rat intestinal trehalase (Rattus norvegicus, UniProt G3V7Q9); test: Rat intestinal glycosidases: trehalase; type: biochemical; conditions: rat intestinal brush border membranes
Sequence of rat intestinal trehalase (G3V7Q9 21-553): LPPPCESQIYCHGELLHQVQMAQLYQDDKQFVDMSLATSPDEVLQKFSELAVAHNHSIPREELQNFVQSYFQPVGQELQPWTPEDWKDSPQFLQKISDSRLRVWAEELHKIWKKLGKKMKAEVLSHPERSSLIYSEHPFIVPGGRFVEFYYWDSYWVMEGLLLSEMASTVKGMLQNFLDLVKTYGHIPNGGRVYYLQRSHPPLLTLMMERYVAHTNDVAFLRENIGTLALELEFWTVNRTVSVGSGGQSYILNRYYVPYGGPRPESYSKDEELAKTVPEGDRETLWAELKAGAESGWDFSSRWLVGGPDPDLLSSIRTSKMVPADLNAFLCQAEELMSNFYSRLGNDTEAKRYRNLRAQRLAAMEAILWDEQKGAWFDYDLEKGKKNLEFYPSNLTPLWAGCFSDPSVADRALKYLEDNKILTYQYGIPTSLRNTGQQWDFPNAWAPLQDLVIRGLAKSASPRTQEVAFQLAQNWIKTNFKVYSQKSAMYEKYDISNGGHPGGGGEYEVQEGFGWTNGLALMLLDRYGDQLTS
Procedure: as §1

[2] = biological target: T3, rat intestinal cellobiase (Rattus norvegicus, UniProt Q02401); test: Rat intestinal glycosidases: cellobiase; type: biochemical; conditions: rat intestinal brush border membranes
T3 construct: Enzyme activities were prepared from brush border membranes of rat small intestine; from tissue; host or cells: rat small intestine brush border membranes
T3 sequence (Q02401 868-1928): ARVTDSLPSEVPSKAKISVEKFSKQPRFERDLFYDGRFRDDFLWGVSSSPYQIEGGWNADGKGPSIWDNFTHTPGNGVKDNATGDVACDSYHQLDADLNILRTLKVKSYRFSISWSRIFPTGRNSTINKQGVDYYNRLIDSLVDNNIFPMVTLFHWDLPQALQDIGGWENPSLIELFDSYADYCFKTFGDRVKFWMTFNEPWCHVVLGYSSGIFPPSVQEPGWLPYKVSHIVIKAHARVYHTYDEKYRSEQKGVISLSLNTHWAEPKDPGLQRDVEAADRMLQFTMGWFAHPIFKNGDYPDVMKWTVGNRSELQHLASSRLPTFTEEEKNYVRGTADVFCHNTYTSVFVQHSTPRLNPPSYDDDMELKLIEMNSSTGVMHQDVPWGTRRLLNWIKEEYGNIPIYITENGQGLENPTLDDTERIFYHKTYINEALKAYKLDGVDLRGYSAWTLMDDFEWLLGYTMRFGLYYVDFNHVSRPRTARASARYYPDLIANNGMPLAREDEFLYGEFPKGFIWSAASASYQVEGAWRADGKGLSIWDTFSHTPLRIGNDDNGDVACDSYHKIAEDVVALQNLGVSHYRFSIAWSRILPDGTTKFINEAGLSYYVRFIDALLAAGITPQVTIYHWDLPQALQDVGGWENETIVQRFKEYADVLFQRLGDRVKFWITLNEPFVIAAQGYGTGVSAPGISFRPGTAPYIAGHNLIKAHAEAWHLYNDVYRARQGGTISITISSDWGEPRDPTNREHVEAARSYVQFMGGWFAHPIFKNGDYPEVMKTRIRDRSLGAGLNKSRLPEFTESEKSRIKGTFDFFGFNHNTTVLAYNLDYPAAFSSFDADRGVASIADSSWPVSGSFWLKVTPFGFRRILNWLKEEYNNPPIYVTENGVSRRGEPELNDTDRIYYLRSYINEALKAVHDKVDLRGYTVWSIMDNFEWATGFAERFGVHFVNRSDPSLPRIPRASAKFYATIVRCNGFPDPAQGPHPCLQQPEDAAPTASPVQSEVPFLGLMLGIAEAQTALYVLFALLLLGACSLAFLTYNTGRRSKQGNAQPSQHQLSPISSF
Procedure: as §1

rat intestinal maltase = conditions: from Yasuda et al., 2002; cited from earlier work

Row | SMILES | stability (Storage stability) | IC50 (rat intestinal sucrase) | inhibition of glucuronidase (glucuronidase) | IC50 [1] | serum insulin level, G2 with glucose (ddy mice; 100 mg/kg body weight oral with D-glucose 2.5 g/kg, vs glucose alone) | serum insulin level, G2 alone (ddy mice; 100 mg/kg body weight oral, without glucose, vs un-treated) | IC50 (rat intestinal trehalase) | IC50 [2] | IC50 (rat intestinal maltase)
1 | O=C(O)[C@H]1NC[C@H](O)[C@@H](O)[C@@H]1O [Compound G2, 2S,3R,4R,5S-trihydroxypiperidine-2-carboxylic acid] | stable | > 1000 µM | weak inhibitor | > 1000 µM | much effective than glucose alone | did not affect the insulin level | > 1000 µM | > 1000 µM | 
2 | OC[C@H]1NC[C@H](O)[C@@H](O)[C@@H]1O [DNJ, 1-deoxynojirimycin, reference compound] |  |  |  |  |  |  |  |  | 0.36 µM
